Results from paper PMC12692722, “The Tetrapeptide HAEE Promotes Amyloid-Beta Clearance from the Brain” (International Journal of Molecular Sciences, 2025).
Residues, ends and D or L forms follow the SMILES beside them.

What was measured:
Aβ oligomers [1] = biological target: T1, Aβ oligomers (Homo sapiens, UniProt P05067); test: Dynamic light scattering of Aβ oligomers; format: physicochemical; conditions: Aβ 50 µM in PBS, 24 h 37 °C, then HAEE 500 µM for additional 24 h 37 °C; measured at 25 °C; triplicate
T1 construct: purchased Peptide Specialty Laboratories GmbH; host or cells: synthetic peptide
Procedure: The size distribution of Aβ oligomers was characterized by DLS using a Zetasizer Nano ZS instrument (Malvern Panalytical, Malvern, UK). Oligomeric Aβ was prepared as described in Section 4.6 and further incubated at a concentration of 50 µM in PBS for 24 h at 37 °C to promote oligomerization. To assess the effect of HAEE, the peptide was added to the pre-formed Aβ oligomers at a final concentration of 500 µM (dissolved in PBS), and the mixture was incubated for an additional 24 h at 37 °C. A control sample containing Aβ without HAEE was processed in parallel under identical conditions. Immediately prior to analysis, samples were briefly centrifuged to sediment any large aggregates and transferred to a disposable polystyrene cuvette (Sarstedt, Nümbrecht, Germany). Measurements were performed at 25 °C, and the hydrodynamic diameter (reported as Z-average) and polydispersity index (PDI) were derived from the correlation function using the Zetasizer Software version 7.13 (Malvern Panalytical, Malvern, UK). Each sample was measured in triplicate.

bEnd.3 cells = test: BBB transwell model: Aβ passage through bEnd.3 monolayer; format: cell-based, mouse; conditions: transwell 0.4 μm, Aβ 100 nM, HAEE 20 μM in abluminal compartment, serum-free DMEM, 37 °C, 24 h, ELISA, n = 5
Procedure: For the experiments, mouse bEnd.3 cells were seeded onto the upper surface of transwell inserts (Greiner Bio-One, Kremsmünster, Austria; pore size 0.4 μm) at a density of 70,000 cells per insert and cultured for 7 days to form a confluent monolayer. The volume of medium in the luminal (upper) compartment was 750 μL and in the abluminal (lower) compartment was 1 mL.
The luminal (upper) compartment contained 700 μL of serum-free DMEM. The plates were incubated at 37 °C and 5% CO2. Samples were collected from the luminal compartment at 24 h. […] To control model BBB integrity, paracellular permeability of the bEnd.3 monolayer was assessed using the fluorescent label sodium fluorescein (Sigma-Aldrich, St. Louis, MO, USA) in each experiment as described in [46].

[2] = cited from earlier work
Text: ApoE4 is the primary genetic risk factor for the sporadic form of AD. Unlike other ApoE isoforms, ApoE4 impairs TREM2-dependent microglial phagocytosis, promotes microglial activation, and contributes to chronic neuroinflammation in AD [41, 42].

HMC3 cells [3] = test: Lysosomal staining of HMC3 cells with LysoTracker Red DND-99; format: cell-based, human; conditions: Aβ 1 μM + HAEE 30 μM, 24 h, 10 cells per field, n = 3
Procedure: Two hours prior to the completion of the incubation period, LysoTracker Red DND-99 (Thermo Fisher Scientific, Waltham, MA, USA) was added to the culture medium at a final concentration of 50 nM to label acidic compartments, including active lysosomes. Immediately before live-cell imaging, cell nuclei were counterstained with NucBlue Live Cell Stain (Thermo Fisher Scientific, Waltham, MA, USA) according to the manufacturer’s instructions. Fluorescent images were acquired using a Nikon Eclipse Ni-U (Nikon Corp., Tokyo, Japan) microscope with appropriate filter sets.

LRP1 = biological target: T2, LRP1 (Mus musculus, UniProt Q91ZX7); test: Inhibitory assay: blocking antibody to LRP1, Aβ level in bEnd.3 cells; format: cell-based; conditions: blocking antibody 10 μg/mL 1 h, Aβ 100 nM + HAEE 20 μM, 2 h, ELISA, n = 3–4
T2 construct: endogenous in cells; host or cells: bEnd.3
Procedure: Cells were incubated with blocking antibodies to LRP or Pgp receptors (10 μg/mL, Santa Cruz Biotechnology, Dallas, TX, USA) for 1 h at +37 °C. […] After 2 h, the cells were washed 3 times with PBS, frozen in liquid nitrogen, and lysed in IP lysis buffer (ServiceBio, Wuhan, China) with the addition of a protease inhibitor (Thermo Fisher Scientific, Waltham, MA, USA) for 1 h at +4 °C with stirring. The cell lysate was centrifuged at 16,000× g, +4 °C, 10 min and the supernatant was collected. The amount of total protein in the lysates was determined using a BCA assay kit (Sigma-Aldrich, St. Louis, MO, USA) according to the manufacturer’s protocol.

[4] = system: nicotinic α4β2 acetylcholine receptors; design: method as in PMID 34207317; conditions: cited from earlier work
Aβ oligomers [5] = biological target: T1, Aβ oligomers; test: Oligomer-specific ELISA of Aβ; format: biochemical; conditions: pre-formed Aβ oligomers in the presence vs absence of HAEE; BAM7cc capture and detection
Procedure: To measure Aβ oligomers using ELISA, two antibodies (a capture antibody and a detector antibody) targeting the same epitope are used. This method therefore allows for the detection of predominantly oligomeric forms of Aβ, which have epitopes available for binding to both the detection antibody and the capture antibody.
BAM7cc antibodies (HyTest, Moscow, Russia), which recognize the N-terminus of Aβ, were added to a 96-well ELISA plate (Wuxi NEST Biotechnology, Wuxi, China) in a volume of 100 μL (0.5 ng/μL) and incubated overnight at +4 °C. The wells of the plate were washed 3 times with 300 μL of PBST (0.05% Tween20) and blocked in 1% BSA (Diaem, Moscow, Russia) in PBST at room temperature and shaken for 1 h. The plate was then washed three times with 300 μL of PBST, and samples were added at a volume of 100 μL per well. The plates were incubated for 2 h at room temperature with shaking, washed 3 times with 300 μL of PBST, and HRP-conjugated BAM7cc antibodies (HyTest, Moscow, Russia) were added at a volume of 100 μL per well (1 ng/μL). The plates were incubated for 1 hour at room temperature with shaking, washed 5 times with 300 μL of PBST, and analyzed using TMB (Diaem, Moscow, Russia). Absorbance was measured at 450 nm using a Multiskan FC Microplate Photometer (Thermo Fisher Scientific, Waltham, MA, USA).

HMC3 cells [6] = test: Aβ degradation assay in HMC3 cells with exocytosis inhibitor GW4869; format: cell-based, human; conditions: Aβ 1 µM 1 h, wash, then 3 h with 10 µM GW4869 ± 30 µM HAEE, ELISA, n = 3
Procedure: HMC3 cells were treated with 1 µM Aβ in serum-free culture medium for 1 h to allow for peptide internalization. Cells were then washed to remove extracellular Aβ. […] Aβ released into the cell culture medium during the degradation phase was also quantified by ELISA.

[7] = system: mixed primary culture of mouse brain cells; test: Aβ uptake and clearance in mixed primary culture of brain cells (ELISA); format: cell-based, C57BL/6 mouse; conditions: Aβ 1 µM, HAEE 30 µM, n = 4
HMC3 cells [8] = test: IL-6 level in HMC3 supernatant (ELISA); format: cell-based, human; conditions: Aβ 1 µM + HAEE 30 µM, 24 h, n = 3
Text: Subsequently, cells were frozen in liquid nitrogen.

TNFα = TNFα level in mouse brain tissue after i.c.v. oligomeric Aβ and HAEE (ELISA); format: in vivo; conditions: C57BL/6 mice; i.c.v. oligomeric Aβ day 1; HAEE 100 µM 1 μL i.c.v. days 1-3; ELISA of brain homogenate; n = 8
Procedure: (§1) After a recovery period, mice were randomly divided into two experimental groups using online GraphPad random number generator (Figure 1A, n = 8 per group): 1. The Aβ group received oligomeric Aβ and vehicle solution (ACSF). 2. The Aβ + HAEE group received oligomeric Aβ and the synthetic tetrapeptide HAEE (100 µM). The group allocation was unknown to the researchers who performed the neurosurgical procedures and ELISA.
(§2) On day 1, all mice received an intracerebroventricular (i.c.v.) injection of oligomeric Aβ (1 μL). Immediately after, mice received the first i.c.v. injection of either HAEE (1 μL) or ACSF (1 μL). Injections were repeated on days 2 and 3 (HAEE or ACSF only). All injections were performed on awake, freely moving mice through the guide cannula at a rate of 1 μL/min. […]
(§3) Aβ levels in the brain and cell lysates were measured by sandwich ELISA using BAM113cc capture antibodies (50 ng/well, HyTest, Moscow, Russia) and peroxidase-labeled BAM7cc antibodies (100 ng/well, HyTest, Moscow, Russia) as described in [46]. Aβ level was normalized to the protein concentration in the samples, measured using a Pierce™ BCA Protein Assay Kit (Thermo Fisher Scientific, Waltham, MA, USA). The rate of Aβ degradation was calculated as the difference in normalized Aβ level in the cells between the 48-hour and 24-hour time points divided by 24 h. […]

HMC3 cells [9] = test: Intracellular ROS and GSH in HMC3 cells by flow cytometry; format: cell-based, human; conditions: Aβ + HAEE, 24 h
Procedure: The cells were stained with dihydrorhodamine 123 (Ex/Em = 507/525 nm) or monobromobimane (Ex/Em = 395/495 nm) according to ThermoFisher Scientific’s instructions. One minute prior to analysis, 10 μg/mL of propidium iodide (Ex/Em = 535/617 nm, Sigma, St. Louis, MO, USA) was added to the cell samples to evaluate the number of dead cells in the population. The analysis was performed using a BD LSR Fortessa flow cytometer (Becton Dickinson, Franklin Lakes, NJ, USA) and FlowJo^TM Software v.10.8.1 (Becton Dickinson, Franklin Lakes, NJ, USA).

Aβ = biological target: T3, Aβ (Homo sapiens, UniProt P05067); test: Aβ level in mouse brain tissue after i.c.v. oligomeric Aβ and HAEE (ELISA); format: in vivo; conditions: C57BL/6 mice, HAEE 100 µM 1 μL i.c.v. days 1-3, n = 8
T3 construct: purchased Peptide Specialty Laboratories GmbH; host or cells: synthetic peptide
Procedure: as §1, §2, §3

IL-6 = IL-6 level in mouse brain tissue after i.c.v. oligomeric Aβ and HAEE (ELISA); format: in vivo; conditions: C57BL/6 mice; i.c.v. oligomeric Aβ day 1; HAEE 100 µM 1 μL i.c.v. days 1-3; ELISA of brain homogenate; vs Aβ + ACSF; n = 8
Procedure: IL-6 and TNFα in all samples were assessed using commercial ELISA kits (IL-6 Mouse Uncoated ELISA Kit, Mouse TNF alpha Uncoated ELISA Kit, Thermo Fisher Scientific, Waltham, MA, USA) according to the manufacturer’s instructions.

[10] = system: primary astrocyte culture; test: Aβ uptake and clearance in primary astrocyte culture (ELISA); format: cell-based, C57BL/6 mouse; conditions: Aβ 1 µM, HAEE 30 µM, n = 4
[11] = system: zinc-induced Aβ oligomers; design: method as in PMID 32872553, PMID 21081056; conditions: binds to Aβ at the 11EVHH14 site; cited from earlier work
HMC3 microglial cells = test: Aβ uptake and clearance in HMC3 microglial cells (ELISA); format: cell-based, human; conditions: Aβ 1 µM, HAEE 30 µM, n = 6

T1 sequence (P05067 672-713): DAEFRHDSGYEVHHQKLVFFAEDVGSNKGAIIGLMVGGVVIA
T3 sequence (P05067 672-713): as above
T2 sequence (Q91ZX7 20-4545): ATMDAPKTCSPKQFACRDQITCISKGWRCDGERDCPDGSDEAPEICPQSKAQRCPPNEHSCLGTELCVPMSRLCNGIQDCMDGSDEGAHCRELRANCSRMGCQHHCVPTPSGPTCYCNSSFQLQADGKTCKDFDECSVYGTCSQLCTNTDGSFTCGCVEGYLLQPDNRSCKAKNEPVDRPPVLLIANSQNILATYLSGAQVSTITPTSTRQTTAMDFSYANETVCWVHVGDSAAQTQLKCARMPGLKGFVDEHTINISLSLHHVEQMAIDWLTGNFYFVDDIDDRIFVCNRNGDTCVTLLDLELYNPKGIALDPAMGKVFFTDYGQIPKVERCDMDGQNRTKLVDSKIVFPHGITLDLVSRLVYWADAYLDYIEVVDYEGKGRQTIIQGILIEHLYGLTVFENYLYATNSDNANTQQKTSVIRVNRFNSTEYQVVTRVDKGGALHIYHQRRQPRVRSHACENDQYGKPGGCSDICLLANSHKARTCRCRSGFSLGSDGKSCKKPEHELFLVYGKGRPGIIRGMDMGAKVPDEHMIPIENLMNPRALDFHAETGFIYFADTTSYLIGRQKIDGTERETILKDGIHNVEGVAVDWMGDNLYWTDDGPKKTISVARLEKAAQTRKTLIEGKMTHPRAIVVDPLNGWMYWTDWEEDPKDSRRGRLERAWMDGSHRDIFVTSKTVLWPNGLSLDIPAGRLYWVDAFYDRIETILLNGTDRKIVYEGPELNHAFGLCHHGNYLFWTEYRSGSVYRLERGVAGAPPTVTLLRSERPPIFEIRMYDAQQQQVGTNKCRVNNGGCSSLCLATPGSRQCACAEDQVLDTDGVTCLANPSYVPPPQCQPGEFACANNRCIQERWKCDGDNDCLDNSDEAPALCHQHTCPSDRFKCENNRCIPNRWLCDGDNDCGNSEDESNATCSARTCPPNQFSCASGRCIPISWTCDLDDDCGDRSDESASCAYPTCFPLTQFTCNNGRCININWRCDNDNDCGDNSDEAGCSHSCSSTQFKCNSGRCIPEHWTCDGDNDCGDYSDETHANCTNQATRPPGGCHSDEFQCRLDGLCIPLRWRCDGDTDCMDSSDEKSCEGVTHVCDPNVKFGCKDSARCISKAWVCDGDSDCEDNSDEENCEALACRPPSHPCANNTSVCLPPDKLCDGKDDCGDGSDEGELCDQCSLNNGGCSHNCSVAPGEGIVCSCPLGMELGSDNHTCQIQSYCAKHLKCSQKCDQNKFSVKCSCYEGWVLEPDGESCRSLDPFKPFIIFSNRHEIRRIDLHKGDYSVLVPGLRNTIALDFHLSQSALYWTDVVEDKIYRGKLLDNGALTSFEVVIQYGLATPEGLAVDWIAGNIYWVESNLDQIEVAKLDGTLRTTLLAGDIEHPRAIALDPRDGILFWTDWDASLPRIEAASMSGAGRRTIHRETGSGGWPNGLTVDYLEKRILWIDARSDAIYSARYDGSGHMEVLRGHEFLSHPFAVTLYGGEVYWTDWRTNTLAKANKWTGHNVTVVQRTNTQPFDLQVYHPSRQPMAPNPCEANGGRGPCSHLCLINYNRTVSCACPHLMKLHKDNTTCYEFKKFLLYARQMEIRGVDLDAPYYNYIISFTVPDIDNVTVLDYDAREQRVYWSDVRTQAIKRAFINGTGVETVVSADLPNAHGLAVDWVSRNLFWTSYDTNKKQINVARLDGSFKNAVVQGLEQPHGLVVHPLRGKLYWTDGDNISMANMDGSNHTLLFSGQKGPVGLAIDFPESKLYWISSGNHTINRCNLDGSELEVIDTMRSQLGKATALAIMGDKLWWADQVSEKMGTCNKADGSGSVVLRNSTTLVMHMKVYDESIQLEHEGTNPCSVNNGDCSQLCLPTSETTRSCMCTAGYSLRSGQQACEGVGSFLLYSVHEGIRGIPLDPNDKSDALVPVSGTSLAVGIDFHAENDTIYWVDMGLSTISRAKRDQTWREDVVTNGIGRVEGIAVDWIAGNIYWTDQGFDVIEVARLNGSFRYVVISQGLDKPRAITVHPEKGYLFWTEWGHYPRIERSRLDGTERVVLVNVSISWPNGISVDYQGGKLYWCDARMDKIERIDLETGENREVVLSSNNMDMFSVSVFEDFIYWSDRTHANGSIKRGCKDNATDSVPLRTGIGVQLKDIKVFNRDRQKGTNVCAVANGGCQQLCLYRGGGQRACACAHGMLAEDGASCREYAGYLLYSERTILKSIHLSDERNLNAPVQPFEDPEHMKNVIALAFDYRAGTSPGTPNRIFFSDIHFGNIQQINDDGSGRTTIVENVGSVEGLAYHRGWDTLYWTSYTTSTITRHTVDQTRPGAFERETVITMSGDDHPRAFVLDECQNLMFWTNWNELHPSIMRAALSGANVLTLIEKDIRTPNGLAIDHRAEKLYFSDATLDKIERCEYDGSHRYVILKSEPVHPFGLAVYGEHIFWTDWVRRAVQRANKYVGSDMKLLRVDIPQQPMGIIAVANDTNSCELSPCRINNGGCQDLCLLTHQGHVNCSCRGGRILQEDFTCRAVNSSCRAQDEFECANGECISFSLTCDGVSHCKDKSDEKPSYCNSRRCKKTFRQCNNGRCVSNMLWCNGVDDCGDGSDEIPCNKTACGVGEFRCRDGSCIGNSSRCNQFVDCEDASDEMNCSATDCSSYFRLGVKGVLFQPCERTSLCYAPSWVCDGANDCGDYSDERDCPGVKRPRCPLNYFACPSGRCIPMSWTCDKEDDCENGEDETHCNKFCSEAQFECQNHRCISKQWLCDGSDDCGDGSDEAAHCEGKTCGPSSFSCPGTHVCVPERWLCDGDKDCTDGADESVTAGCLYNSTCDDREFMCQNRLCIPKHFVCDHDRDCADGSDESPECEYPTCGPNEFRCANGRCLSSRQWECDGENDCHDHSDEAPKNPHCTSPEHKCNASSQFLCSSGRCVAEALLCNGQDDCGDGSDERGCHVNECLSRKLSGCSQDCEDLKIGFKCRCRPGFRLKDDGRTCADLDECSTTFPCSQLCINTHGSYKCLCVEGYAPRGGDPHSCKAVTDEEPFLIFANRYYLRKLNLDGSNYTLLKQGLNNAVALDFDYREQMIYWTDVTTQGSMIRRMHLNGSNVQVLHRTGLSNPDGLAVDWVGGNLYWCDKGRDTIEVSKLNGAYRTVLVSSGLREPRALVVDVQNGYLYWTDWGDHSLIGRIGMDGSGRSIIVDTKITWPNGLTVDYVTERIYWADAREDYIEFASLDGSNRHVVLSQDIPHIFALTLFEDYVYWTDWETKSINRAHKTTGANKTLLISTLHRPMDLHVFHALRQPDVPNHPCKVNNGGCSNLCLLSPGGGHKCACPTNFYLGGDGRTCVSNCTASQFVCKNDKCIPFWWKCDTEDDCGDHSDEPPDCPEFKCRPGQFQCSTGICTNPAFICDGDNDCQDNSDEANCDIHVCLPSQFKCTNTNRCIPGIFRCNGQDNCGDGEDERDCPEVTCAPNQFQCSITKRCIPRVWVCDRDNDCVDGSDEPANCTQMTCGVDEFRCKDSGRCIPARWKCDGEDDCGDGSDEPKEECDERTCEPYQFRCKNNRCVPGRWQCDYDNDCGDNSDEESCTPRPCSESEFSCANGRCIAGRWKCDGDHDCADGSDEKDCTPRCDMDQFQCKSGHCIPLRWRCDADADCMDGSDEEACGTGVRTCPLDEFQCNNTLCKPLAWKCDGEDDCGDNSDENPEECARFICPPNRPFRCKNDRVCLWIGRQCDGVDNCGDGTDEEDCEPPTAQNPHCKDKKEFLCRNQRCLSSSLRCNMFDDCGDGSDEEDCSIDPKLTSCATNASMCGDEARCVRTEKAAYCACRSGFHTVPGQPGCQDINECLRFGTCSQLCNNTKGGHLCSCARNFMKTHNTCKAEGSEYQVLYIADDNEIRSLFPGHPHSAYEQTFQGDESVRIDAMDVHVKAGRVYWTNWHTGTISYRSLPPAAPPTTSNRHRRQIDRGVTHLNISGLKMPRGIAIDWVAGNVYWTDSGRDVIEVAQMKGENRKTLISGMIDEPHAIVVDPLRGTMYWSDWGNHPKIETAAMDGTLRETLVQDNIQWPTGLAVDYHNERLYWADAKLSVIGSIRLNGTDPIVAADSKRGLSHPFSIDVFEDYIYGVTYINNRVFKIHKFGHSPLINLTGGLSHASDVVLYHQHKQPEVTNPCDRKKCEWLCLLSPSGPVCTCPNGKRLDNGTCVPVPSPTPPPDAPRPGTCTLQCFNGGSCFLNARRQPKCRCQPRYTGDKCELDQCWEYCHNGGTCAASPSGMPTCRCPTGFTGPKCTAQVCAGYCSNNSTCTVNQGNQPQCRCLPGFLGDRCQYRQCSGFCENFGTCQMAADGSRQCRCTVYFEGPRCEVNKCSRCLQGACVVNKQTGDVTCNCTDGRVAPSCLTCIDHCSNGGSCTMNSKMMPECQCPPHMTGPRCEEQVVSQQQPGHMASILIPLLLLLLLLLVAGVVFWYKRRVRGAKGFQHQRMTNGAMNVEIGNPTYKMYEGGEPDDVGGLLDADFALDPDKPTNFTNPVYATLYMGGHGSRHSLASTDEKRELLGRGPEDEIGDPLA

## CC(=O)N[C@@H](Cc1c[nH]cn1)C(=O)N[C@@H](C)C(=O)N[C@@H](CCC(=O)O)C(=O)N[C@@H](CCC(=O)O)C(N)=O [HAEE, Acetyl-HAEE-Amide] (Ac-HAEE-NH2)
Aβ oligomers [1]
  average size of Aβ oligomers (DLS): reduced their average size
bEnd.3 cells
  rate of Aβ passage across the BBB from abluminal to luminal compartment: significantly increased
[2]
  toxicity: non-toxic
HMC3 cells [3]
  effect on Aβ-induced changes in lysosomes (size and number): completely abolished
LRP1
  reduction of Aβ uptake by endothelial cells on blocking LRP1, in the presence of HAEE: 30%
[4]
  effect on the inhibitory effect of Aβ42 on nicotinic α4β2 acetylcholine receptors: completely abolishes
Aβ oligomers [5]
  amount of Aβ oligomers (oligomer-specific ELISA): reduced the amount of Aβ oligomers
HMC3 cells [6]
  reduction of intracellular Aβ level, HAEE + GW4869 compared to GW4869 alone: 40%
[7]; clearance rate = difference of Aβ level 48 h vs 24 h divided by 24 h
  effect on Aβ clearance by the cells at 24–48 h: notably accelerated
[7]; medium without FBS, ELISA
  effect on intracellular Aβ level at 4–24 h: did not significantly affect
HMC3 cells [8]
  effect on Aβ-induced increase in IL-6 level: effectively inhibited
TNFα
  effect on TNFα levels in mouse brain tissue: no effect
HMC3 cells [9]; dihydrorhodamine 123, n = 4
  effect on Aβ-induced change in reactive oxygen species (ROS) level: completely prevented
HMC3 cells [9]; monobromobimane, n = 4
  effect on Aβ-induced change in reduced glutathione (GSH) level: completely prevented
Aβ; 8-month-old, i.c.v. oligomeric Aβ 1 μL day 1, brain lysate ELISA 30 min after final injection, vs Aβ + ACSF
  reduction of Aβ level in mouse brain tissue: 35%
Aβ; i.c.v. oligomeric Aβ day 1, ELISA
  Aβ level in the brain of mice treated with HAEE compared to animals that did not receive the tetrapeptide: reliably reduced
IL-6
  decrease in IL-6 levels in mouse brain tissue: 40%
[10]; 24–48 h period
  effect on the rate of Aβ clearance: did not affect
[10]; ELISA
  level of intracellular Aβ after 24–48 h of incubation compared to cells treated with Aβ alone: decreased
[11]
  formation of toxic, zinc-induced Aβ oligomers: blocks
HMC3 microglial cells; 24–48 h period
  rate of Aβ clearance: doubled
HMC3 microglial cells; ELISA
  amount of intracellular Aβ after 24 h and 48 h of incubation compared to cells not treated with HAEE: significantly reduced

## O=C(/C=C/c1ccc(/C=C/C(=O)Nc2ccc(C3=NCCN3)cc2)cc1)Nc1ccc(C2=NCCN2)cc1 [GW4869, reference compound]
HMC3 cells [6]
  effect of GW4869 on HAEE-dependent Aβ clearance in microglial cells: did not prevent the effect of HAEE
